Common to all, as to assay type: functional
One assay concerns Streptococcus pyogenes. As to the kind of experiment: Antibacterial activity against Streptococcus pyogenes MTCC 442 after 24 to 48 hr by serial broth dilution method.
Another assay concerns Aspergillus clavatus. Briefly: Antifungal activity against Aspergillus clavatus MTCC 1323 after 72 hr by serial broth dilution method. The note with it: MTCC 1323, 72 h. In general terms: Broth dilution looks for growth in wells or tubes with falling amounts of substance.
The test system of the next assay is Escherichia coli. As to the kind of experiment: Antibacterial activity against Escherichia coli MTCC 443 after 24 to 48 hr by serial broth dilution method.
The test system of the next assay is Pseudomonas aeruginosa. Briefly: Antibacterial activity against Pseudomonas aeruginosa MTCC 1688 after 24 to 48 hr by serial broth dilution method.
The next assay deals with Candida albicans. As to the kind of experiment: Antifungal activity against Candida albicans MTCC 227 after 72 hr by serial broth dilution method. The following applies: MTCC 227, 72 h.
For a further assay, the system named is Aspergillus niger. Briefly: Antifungal activity against Aspergillus niger MTCC 282 after 72 hr by serial broth dilution method. The following applies: MTCC 282, 72 h.
Another assay has as its system Staphylococcus aureus. As to the kind of experiment: Antibacterial activity against Staphylococcus aureus MTCC 96 after 24 to 48 hr by serial broth dilution method.

≈ marks a conversion by molar mass, not a printed value.

One may read the MIC as the lowest concentration found to suppress growth. A higher MIC goes with a less susceptible organism.

For `O=C(CN1CCOCC1)Nc1nc(-c2ccccc2)cc(-c2cc3cc(Cl)ccc3nc2Cl)n1`, the MIC in the assay on Streptococcus pyogenes was 1000 µg/mL (≈ 2020 µM); against Aspergillus clavatus, 1000 µg/mL (≈ 2020 µM); in the assay on Escherichia coli, 500 µg/mL (≈ 1010 µM); in the assay on Pseudomonas aeruginosa, 250 µg/mL (≈ 506 µM); against Candida albicans it was 1000 µg/mL (≈ 2020 µM); with Aspergillus niger, 1000 µg/mL (≈ 2020 µM). The compound further had an MIC in the assay on Staphylococcus aureus of 1000 µg/mL (≈ 2020 µM).

As to `O=C(CN1CCOCC1)Nc1nc(-c2ccccc2O)cc(-c2cc3cc(Cl)ccc3nc2Cl)n1`, the MIC was found to be 500 µg/mL (≈ 980 µM) in the assay on Streptococcus pyogenes; 500 µg/mL (≈ 980 µM) against Aspergillus clavatus; 500 µg/mL (≈ 980 µM) with Escherichia coli; 250 µg/mL (≈ 490 µM) against Pseudomonas aeruginosa; 1000 µg/mL (≈ 1960 µM) in the assay on Candida albicans; 500 µg/mL (≈ 980 µM) against Aspergillus niger. Further, the MIC with Staphylococcus aureus came to 500 µg/mL (≈ 980 µM).

Take `O=C(CN1CCOCC1)Nc1nc(-c2ccc(O)cc2)cc(-c2cc3cc(Cl)ccc3nc2Cl)n1`: the MIC in the assay on Streptococcus pyogenes is 1000 µg/mL (≈ 1960 µM); against Aspergillus clavatus, 1000 µg/mL (≈ 1960 µM); against Escherichia coli it was 500 µg/mL (≈ 980 µM); against Pseudomonas aeruginosa, 1000 µg/mL (≈ 1960 µM); in the assay with Candida albicans it was 1000 µg/mL (≈ 1960 µM); with Aspergillus niger it was 1000 µg/mL (≈ 1960 µM). The compound also displayed an MIC with Staphylococcus aureus of 500 µg/mL (≈ 980 µM).

With `COc1ccc(-c2cc(-c3cc4cc(Cl)ccc4nc3Cl)nc(NC(=O)CN3CCOCC3)n2)cc1`, the MIC with Streptococcus pyogenes worked out at 500 µg/mL (≈ 953 µM); against Aspergillus clavatus it was 500 µg/mL (≈ 953 µM); with Escherichia coli, 250 µg/mL (≈ 477 µM); in the assay with Pseudomonas aeruginosa it was 250 µg/mL (≈ 477 µM); with Candida albicans, 1000 µg/mL (≈ 1910 µM); in the assay with Aspergillus niger, 500 µg/mL (≈ 953 µM). Moreover, the lowest concentration to inhibit growth against Staphylococcus aureus (MIC) was 500 µg/mL (≈ 953 µM).

For `O=C(CN1CCOCC1)Nc1nc(-c2ccccc2Cl)cc(-c2cc3cc(Cl)ccc3nc2Cl)n1`, the MIC against Streptococcus pyogenes came to 100 µg/mL (≈ 189 µM); with Aspergillus clavatus it was 25 µg/mL (≈ 47.3 µM); in the assay on Escherichia coli it was 50 µg/mL (≈ 94.5 µM); against Pseudomonas aeruginosa, 250 µg/mL (≈ 473 µM); in the assay on Candida albicans, 500 µg/mL (≈ 945 µM); with Aspergillus niger, 100 µg/mL (≈ 189 µM). This compound also displayed an MIC in the assay on Staphylococcus aureus of 250 µg/mL (≈ 473 µM).

Consider `O=C(CN1CCOCC1)Nc1nc(-c2ccc(Cl)cc2)cc(-c2cc3cc(Cl)ccc3nc2Cl)n1`, for which the MIC against Streptococcus pyogenes is 50 µg/mL (≈ 94.5 µM); against Aspergillus clavatus it was 100 µg/mL (≈ 189 µM); with Escherichia coli, 100 µg/mL (≈ 189 µM); against Pseudomonas aeruginosa it was 25 µg/mL (≈ 47.3 µM); in the assay with Candida albicans, 100 µg/mL (≈ 189 µM); against Aspergillus niger, 100 µg/mL (≈ 189 µM). Further, in the assay with Staphylococcus aureus, it took 250 µg/mL (≈ 473 µM) to inhibit growth (MIC).

Turning to `O=C(CN1CCOCC1)Nc1nc(-c2ccccc2F)cc(-c2cc3cc(Cl)ccc3nc2Cl)n1`, the MIC in the assay on Streptococcus pyogenes was 100 µg/mL (≈ 195 µM); with Aspergillus clavatus, 50 µg/mL (≈ 97.6 µM); in the assay with Escherichia coli it was 50 µg/mL (≈ 97.6 µM); in the assay with Pseudomonas aeruginosa, 50 µg/mL (≈ 97.6 µM); against Candida albicans it was 250 µg/mL (≈ 488 µM); in the assay with Aspergillus niger, 25 µg/mL (≈ 48.8 µM). Besides, the MIC in the assay with Staphylococcus aureus was determined as 50 µg/mL (≈ 97.6 µM).

On to `O=C(CN1CCOCC1)Nc1nc(-c2cccc(F)c2)cc(-c2cc3cc(Cl)ccc3nc2Cl)n1`, for which the MIC with Streptococcus pyogenes worked out at 500 µg/mL (≈ 976 µM); in the assay with Aspergillus clavatus, 100 µg/mL (≈ 195 µM); in the assay on Escherichia coli, 100 µg/mL (≈ 195 µM); in the assay on Pseudomonas aeruginosa, 100 µg/mL (≈ 195 µM); against Candida albicans, 1000 µg/mL (≈ 1950 µM); against Aspergillus niger it was 100 µg/mL (≈ 195 µM). For the same compound, the lowest concentration to inhibit growth in the assay on Staphylococcus aureus (MIC) was 250 µg/mL (≈ 488 µM).

`O=C(CN1CCOCC1)Nc1nc(-c2ccc(F)cc2)cc(-c2cc3cc(Cl)ccc3nc2Cl)n1`: the MIC was determined as 100 µg/mL (≈ 195 µM) with Streptococcus pyogenes; 12.5 µg/mL (≈ 24.4 µM) against Aspergillus clavatus; 25 µg/mL (≈ 48.8 µM) in the assay with Escherichia coli; 250 µg/mL (≈ 488 µM) in the assay with Pseudomonas aeruginosa; 500 µg/mL (≈ 976 µM) against Candida albicans; 1000 µg/mL (≈ 1950 µM) in the assay with Aspergillus niger. The compound further registered an MIC with Staphylococcus aureus of 500 µg/mL (≈ 976 µM).

Consider `O=C(CN1CCOCC1)Nc1nc(-c2ccccc2[N+](=O)[O-])cc(-c2cc3cc(Cl)ccc3nc2Cl)n1`, for which the MIC with Streptococcus pyogenes was 12.5 µg/mL (≈ 23.2 µM); against Aspergillus clavatus, 50 µg/mL (≈ 92.7 µM); against Escherichia coli it was 12.5 µg/mL (≈ 23.2 µM); against Pseudomonas aeruginosa, 50 µg/mL (≈ 92.7 µM); with Candida albicans, 100 µg/mL (≈ 185 µM); against Aspergillus niger, 25 µg/mL (≈ 46.3 µM). This compound yielded an MIC with Staphylococcus aureus of 500 µg/mL (≈ 927 µM).

As for `O=C(CN1CCOCC1)Nc1nc(-c2cccc([N+](=O)[O-])c2)cc(-c2cc3cc(Cl)ccc3nc2Cl)n1`, the MIC in the assay with Streptococcus pyogenes came out at 100 µg/mL (≈ 185 µM); in the assay on Aspergillus clavatus, 100 µg/mL (≈ 185 µM); against Escherichia coli, 100 µg/mL (≈ 185 µM); against Pseudomonas aeruginosa, 100 µg/mL (≈ 185 µM); against Candida albicans, 500 µg/mL (≈ 927 µM); against Aspergillus niger, 50 µg/mL (≈ 92.7 µM). Also, it took 50 µg/mL (≈ 92.7 µM) to inhibit growth against Staphylococcus aureus (MIC).

For the compound `O=C(CN1CCOCC1)Nc1nc(-c2ccc([N+](=O)[O-])cc2)cc(-c2cc3cc(Cl)ccc3nc2Cl)n1`, the MIC worked out at 250 µg/mL (≈ 463 µM) with Streptococcus pyogenes; 25 µg/mL (≈ 46.3 µM) with Aspergillus clavatus; 250 µg/mL (≈ 463 µM) in the assay with Escherichia coli; 250 µg/mL (≈ 463 µM) against Pseudomonas aeruginosa; 250 µg/mL (≈ 463 µM) in the assay on Candida albicans; 100 µg/mL (≈ 185 µM) in the assay on Aspergillus niger. Besides, the MIC in the assay on Staphylococcus aureus was 100 µg/mL (≈ 185 µM).

With `CC1(C)S[C@@H]2[C@H](NC(=O)[C@H](N)c3ccccc3)C(=O)N2[C@H]1C(=O)O` [AMPICILLIN], the MIC in the assay with Streptococcus pyogenes is 100 µg/mL (≈ 286 µM); in the assay with Escherichia coli it was 100 µg/mL (≈ 286 µM); in the assay on Pseudomonas aeruginosa, 100 µg/mL (≈ 286 µM); against Staphylococcus aureus it was 250 µg/mL (≈ 715 µM).

With `COC1=CC(=O)C[C@@H](C)[C@]12Oc1c(Cl)c(OC)cc(OC)c1C2=O` [GRISEOFULVIN], the MIC in the assay on Aspergillus clavatus came to 100 µg/mL (≈ 283 µM); in the assay on Candida albicans it was 500 µg/mL (≈ 1420 µM); in the assay with Aspergillus niger, 100 µg/mL (≈ 283 µM).

For the origin of these results see ChEMBL document CHEMBL3044576, “Synthesis of promising antimicrobial agents: a novel series of N-(4-(2,6-dichloroquinolin-3-yl)-6-(aryl)pyrimidin-2-yl)-2-morpholinoacetamides” (2013).
